This test has as its system Vibrio spp. isolated from shrimp pond water. Description: Disk diffusion on Vibrio isolation agar (zone of inhibition). Type of test: cell-based. The conditions noted are these: 10 μl on disk, extract of 20 g powder in 100 ml water, chloramphenicol 25 μg/ml, 37° C. On the procedure: In another experiment, the effect of the nut gall extract on the growth of Vibrio spp. isolated from shrimp pond water was tested. The extract was prepared by adding 20 g of nut gall powder into 100 ml of water, soaking for one hour followed by centrifugation. Chloramphenicol (25 μg/ml) was taken as positive control. Vibrio isolation agar was prepared and the agar plates were cooled to room temperature. Sterile disk was placed in the centre of agar plate, after inoculating Vibrio spp. using a sterile cotton swab. 10 μl of extract/antibiotic was added to the disk and incubated at 37° C. in an incubator.
Background: A growth-free zone around the sample is the usual read-out of agar diffusion tests.

Molecules are shown by their SMILES.

In the case of `O=C(N[C@H](CO)[C@H](O)c1ccc([N+](=O)[O-])cc1)C(Cl)Cl` [Chloramphenicol], the zone of inhibition at 25 µg/mL amounted to 13 mm.

As usually defined, the zone of inhibition is the size of the clear area around the sample on an inoculated plate.

The values are drawn from US9115012B2, “Method of improving the water quality in aquatic ecosystems” (Kemin Industries, Inc., priority 2010, dated 2015).
